Article PMC6256351, “Stereoselective Synthesis of the Isomers of Notoincisol A: Assigment of the Absolute Configuration of this Natural Product and Biological Evaluation” (Journal of Natural Products, 2018)

Target: T1, PPARγ (peroxisome proliferator-activated receptor gamma) (Homo sapiens, UniProt P37231)
T1 construct: gene PPARG; full-length human PPARγ
T1 sequence (P37231 1-505): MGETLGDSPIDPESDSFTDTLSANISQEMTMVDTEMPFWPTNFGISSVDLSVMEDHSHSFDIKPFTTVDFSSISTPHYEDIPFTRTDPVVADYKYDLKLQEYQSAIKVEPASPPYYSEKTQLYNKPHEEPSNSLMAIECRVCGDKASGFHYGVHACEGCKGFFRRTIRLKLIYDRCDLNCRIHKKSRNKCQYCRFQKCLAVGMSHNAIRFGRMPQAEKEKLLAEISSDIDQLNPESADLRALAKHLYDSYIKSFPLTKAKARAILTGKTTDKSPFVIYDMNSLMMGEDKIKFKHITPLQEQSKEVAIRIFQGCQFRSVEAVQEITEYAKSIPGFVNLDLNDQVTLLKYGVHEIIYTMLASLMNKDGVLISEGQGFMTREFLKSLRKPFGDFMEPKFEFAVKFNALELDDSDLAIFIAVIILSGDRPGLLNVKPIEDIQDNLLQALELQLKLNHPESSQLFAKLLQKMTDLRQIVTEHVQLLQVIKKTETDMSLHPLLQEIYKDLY
Assay: luciferase reporter gene transactivation in HEK293 cells transfected with PPARγ
Assay type: cell-based

Work on `C=C[C@@H](O)C#CC#C[C@H](/C=C\CCCCCCC)OC(=O)/C=C/c1ccc(O)c(OC)c1` [3R,8S-1, (3R,8S)-Notoincisol A] yielded an EC50 of 1200 nM.
